pIC50: −log10 of the molar value.
Biological target: SIK2 (Homo sapiens (Human), UniProt Q9H0K1)
Assay: SIK2 Enzymatic Assay Version 2 (High ATP)
Type: biochemical
Settings: 3 mM ATP and 200 μM HDAC5tide final, ADP-Glo Max luminescence
Experimental: All steps were performed at room temperature. Compounds were pre-plated onto an assay plate using an Echo acoustic dispenser (Labcyte, […] or […]) at 80 nL per well. Enzyme prepared in assay buffer at 6 nM (2× final concentration) was added at 4 μL per well using the Multidrop Combi (Thermo Fisher-used for all additions in this assay) to the assay plate, spun for 1 min at 1000 rpm (Allegra 6KR Beckman Coulter centrifuge), and incubated with compound for 30 minutes. […] ADP-Glo Max Reagent (prepared and aliquoted as per manufacturer instructions) was then added at 8 μL per well, spun and incubated for 2 hours. ADP-Glo Max Detection (prepared and aliquoted as per manufacturer instructions) was added at 8 μL per well to the assay plate, which was spun and incubated for 1 hour. The plate was then read on the Pherastar (BMG Labtech) using a luminescence read. Gain was set between 2200-2500.

SIK2, sequence (Q9H0K1 whole entry, species assumed): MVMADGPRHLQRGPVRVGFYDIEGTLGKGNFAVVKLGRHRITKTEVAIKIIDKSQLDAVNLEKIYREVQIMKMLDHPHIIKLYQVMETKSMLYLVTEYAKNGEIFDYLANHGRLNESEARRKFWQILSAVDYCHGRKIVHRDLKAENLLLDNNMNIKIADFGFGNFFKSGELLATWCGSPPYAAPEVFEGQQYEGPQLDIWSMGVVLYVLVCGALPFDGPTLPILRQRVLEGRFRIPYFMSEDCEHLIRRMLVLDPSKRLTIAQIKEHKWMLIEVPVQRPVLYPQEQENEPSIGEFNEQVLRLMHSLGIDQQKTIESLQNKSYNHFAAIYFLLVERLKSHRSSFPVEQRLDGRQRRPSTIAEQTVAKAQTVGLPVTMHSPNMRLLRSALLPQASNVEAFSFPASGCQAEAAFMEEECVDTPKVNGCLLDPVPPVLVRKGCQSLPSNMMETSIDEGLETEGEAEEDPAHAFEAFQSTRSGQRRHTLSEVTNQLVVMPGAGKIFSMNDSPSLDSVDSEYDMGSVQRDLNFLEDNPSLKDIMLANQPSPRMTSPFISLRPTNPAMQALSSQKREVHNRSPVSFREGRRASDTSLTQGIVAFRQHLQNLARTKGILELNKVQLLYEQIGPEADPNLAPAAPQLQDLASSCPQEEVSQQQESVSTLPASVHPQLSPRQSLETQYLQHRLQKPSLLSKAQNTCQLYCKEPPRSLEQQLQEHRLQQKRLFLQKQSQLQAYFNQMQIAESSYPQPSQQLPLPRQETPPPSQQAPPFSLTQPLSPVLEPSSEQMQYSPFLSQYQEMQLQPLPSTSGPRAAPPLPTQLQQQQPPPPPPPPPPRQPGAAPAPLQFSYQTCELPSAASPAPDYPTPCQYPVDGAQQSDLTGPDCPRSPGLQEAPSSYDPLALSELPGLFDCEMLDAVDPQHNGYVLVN

pIC50 | SMILES
6.95 | CN1CC[C@@H]1COc1cnn(C)c1-c1ccn2nc(NC(=O)[C@@H]3C[C@@H]3c3ccccc3)cc2c1 (mixture of isomers) [Example 473, cis-N-[5-[2-methyl-4-[(1-methylazetidin-2-yl)methoxy]pyrazol-3-yl]pyrazolo[1,5-a]pyridin-2-yl]-2-phenyl-cyclopropanecarboxamide]
7.15 | CN1CC2(CCOCC2)C1COc1cnn(C)c1-c1ccn2nc(NC(=O)C3CC3)cc2c1 (racemic) [Example 13, (rac)-N-[5-[2-methyl-4-[(2-methyl-7-oxa-2-azaspiro[3.5]nonan-3-yl)methoxy]pyrazol-3-yl]pyrazolo[1,5-a]pyridin-2-yl]cyclopropanecarboxamide]
7.33 | CN1CC2(CC2)C1COc1cnn(C)c1-c1ccn2nc(NC(=O)C3CC3)cc2c1 (racemic) [Example 51, (rac)-N-[5-[2-methyl-4-[(5-methyl-5-azaspiro[2.3]hexan-6-yl)methoxy]pyrazol-3-yl]pyrazolo[1,5-a]pyridin-2-yl]cyclopropanecarboxamide]
6.75 | CN1CCC1(C)COc1cnn(C)c1-c1ccn2nc(NC(=O)C3CC3)cc2c1 (racemic) [Example 54, (rac)-N-[5-[4-[(1,2-dimethylazetidin-2-yl)methoxy]-2-methyl-pyrazol-3-yl]pyrazolo[1,5-a]pyridin-2-yl]cyclopropanecarboxamide]
6.64 | CN1CC(F)(F)C1COc1cnn(C)c1-c1ccn2nc(NC(=O)C3CC3)cc2c1 (racemic) [Example 60, rac-N-[5-[4-[(3,3-difluoro-1-methyl-azetidin-2-yl)methoxy]-2-methyl-pyrazol-3-yl]pyrazolo[1,5-a]pyridin-2-yl]cyclopropanecarboxamide]
6.66 | CN1CC[C@@H]1COc1cnn(C)c1-c1ccn2nc(NC(=O)[C@H]3C[C@@H]3C(F)(F)F)cc2c1 (racemic) [Example 70, trans-N-[5-[2-methyl-4-[((2R)-1-methylazetidin-2-yl)methoxy]pyrazol-3-yl]pyrazolo[1,5-a]pyridin-2-yl]-2-(trifluoromethyl)cyclopropanecarboxamide]
7.65 | CN1CC[C@@H]1COc1cnn(C)c1-c1ccn2nc(NC(=O)[C@H]3C[C@@H]3c3ccccc3)cc2c1 (racemic) [Example 71, trans-N-[5-[2-methyl-4-[((2R)-1-methylazetidin-2-yl)methoxy]pyrazol-3-yl]pyrazolo[1,5-a]pyridin-2-yl]-2-phenyl-cyclopropanecarboxamide]
7.91 | COC1(COc2cnn(C(F)F)c2-c2ccn3nc(Nc4cc(C)nc(C)n4)cc3c2)CCNC1 (racemic) [Example 100, (RS)-5-[2-(difluoromethyl)-4-[(3-methoxypyrrolidin-3-yl)methoxy]pyrazol-3-yl]-N-(2,6-dimethylpyrimidin-4-yl)pyrazolo[1,5-a]pyridin-2-amine]
8.14 | Cc1cc(Nc2cc3cc(-c4c(OCC5(F)CCNC5)cnn4C(F)F)ccn3n2)nc(C)n1 (racemic) [Example 101, (RS)-5-[2-(difluoromethyl)-4-[(3-fluoropyrrolidin-3-yl)methoxy]pyrazol-3-yl]-N-(2,6-dimethylpyrimidin-4-yl)pyrazolo[1,5-a]pyridin-2-amine]
7.84 | Cn1ncc(COC2CNCC2(F)F)c1-c1ccn2nc(NC(=O)C3CC3)cc2c1 (racemic) [Example 184, (RS)—N-[5-[4-[(4,4-difluoropyrrolidin-3-yl)oxymethyl]-2-methyl-pyrazol-3-yl]pyrazolo[1,5-a]pyridin-2-yl]cyclopropanecarboxamide]
7.53 | COC1CNC[C@@H]1Oc1noc(C)c1-c1ccn2nc(NC(=O)C3CC3)cc2c1 (mixture of isomers) [Example 200, (rac-cis)-N-[5-[3-(4-methoxypyrrolidin-3-yl)oxy-5-methyl-isoxazol-4-yl]pyrazolo[1,5-a]pyridin-2-yl]cyclopropanecarboxamide]
7.63 | COC1(COc2noc(C)c2-c2ccn3nc(NC(=O)C4CC4)cc3c2)CCNC1 (racemic) [Example 205, (RS)—N-[5-[3-[(3-methoxypyrrolidin-3-yl)methoxy]-5-methyl-isoxazol-4-yl]pyrazolo[1,5-a]pyridin-2-yl]cyclopropanecarboxamide]
7.94 | Cc1onc(O[C@@H]2CNC[C@@H]2F)c1-c1ccn2nc(NC(=O)C3CC3)cc2c1 (racemic) [Example 208, (rac-cis)-N-[5-[3-(4-fluoropyrrolidin-3-yl)oxy-5-methyl-isoxazol-4-yl]pyrazolo[1,5-a]pyridin-2-yl]cyclopropanecarboxamide]
7.49 | Cc1onc(O[C@@H]2CCNC[C@@H]2F)c1-c1ccn2nc(NC(=O)C3CC3)cc2c1 (racemic) [Example 211, (rac-cis)-N-[5-[3-[(3-fluoro-4-piperidyl)oxy]-5-methyl-isoxazol-4-yl]pyrazolo[1,5-a]pyridin-2-yl]cyclopropanecarboxamide]
7.33 | Cc1onc(O[C@H]2C[C@H]3C[C@@H]2CN3)c1-c1ccn2nc(NC(=O)C3CC3)cc2c1 (racemic) [Example 212, Exo-Rac-N-[5-[3-(2-azabicyclo[2.2.1]heptan-5-yloxy)-5-methyl-isoxazol-4-yl]pyrazolo[1,5-a]pyridin-2-yl]cyclopropanecarboxamide]
7.54 | Cn1ncc(OCC2NCC23CC3)c1-c1ccn2nc(NC(=O)C3CC3)cc2c1 (racemic) [Example 240, (RS)—N-[5-[4-(5-azaspiro[2.3]hexan-6-ylmethoxy)-2-methyl-pyrazol-3-yl]pyrazolo[1,5-a]pyridin-2-yl]cyclopropanecarboxamide]
8.62 | Cc1cc(Nc2cc3cc(-c4c(CO[C@@H]5CN(C)C[C@H]5C)cnn4C)ccn3n2)nc(C)n1 (racemic) [Example 364, Rac-N-(2,6-dimethylpyrimidin-4-yl)-5-[4-[(1,4-dimethylpyrrolidin-3-yl)oxymethyl]-2-methyl-pyrazol-3-yl]pyrazolo[1,5-a]pyridin-2-amine]
8.37 | Cc1cnc(Nc2cc3cc(-c4c(COC5CN(C)CC5C)cnn4C)ccn3n2)cn1 (racemic) [Example 376, Rac-CIS-5-[4-[(1,4-dimethylpyrrolidin-3-yl)oxymethyl]-2-methyl-pyrazol-3-yl]-N-(5-methylpyrazin-2-yl)pyrazolo[1,5-a]pyridin-2-amine]
6.77 | CO[C@@H]1CN(C)C[C@@H]1Oc1cnn(C)c1-c1ccn2nc(NC(=O)C3CC3)cc2c1 (racemic) [Example 409, (rac-cis)-N-[5-[4-(4-methoxy-1-methyl-pyrrolidin-3-yl)oxy-2-methyl-pyrazol-3-yl]pyrazolo[1,5-a]pyridin-2-yl]cyclopropanecarboxamide]
6.93 | CO[C@H]1CNC[C@@H]1Oc1cnn(C)c1-c1ccn2nc(NC(=O)C3CC3)cc2c1 (racemic) [Example 421, (rac-trans)-N-[5-[4-(4-methoxypyrrolidin-3-yl)oxy-2-methyl-pyrazol-3-yl]pyrazolo[1,5-a]pyridin-2-yl]cyclopropanecarboxamide]
7.61 | Cc1cc(Nc2cc3cc(-c4c(OC[C@@H]5CCO[C@@H]5C)cnn4C)ccn3n2)nc(C)n1 (relative stereo) [Example 295, (2*R, 3*S)—N-(2,6-dimethylpyrimidin-4-yl)-5-[2-methyl-4-[(2-methyltetrahydrofuran-3-yl)methoxy]pyrazol-3-yl]pyrazolo[1,5-a]pyridin-2-amine]
7.17 | CO[C@@H]1CN(C)C[C@@H]1Oc1noc(C)c1-c1ccn2nc(NC(=O)C3CC3)cc2c1 (relative stereo) [Example 317, *S, *R—N-[5-[3-(4-methoxy-1-methyl-pyrrolidin-3-yl)oxy-5-methyl-isoxazol-4-yl]pyrazolo[1,5-a]pyridin-2-yl]cyclopropanecarboxamide]
7.17 | Cn1ncc(OC[C@H]2CCN2C[C@@H]2CCCO2)c1-c1ccn2nc(NC(=O)C3CC3)cc2c1 (relative stereo) [Example 353, (*S)—N-[5-[2-methyl-4-[[1-(tetrahydrofuran-2-ylmethyl)azetidin-2-yl]methoxy]pyrazol-3-yl]pyrazolo[1,5-a]pyridin-2-yl]cyclopropanecarboxamide]
8.89 | Cc1cc(Nc2cc3cc(-c4c(CO[C@@H]5CN(C)C[C@H]5C)cnn4C)ccn3n2)nc(C)n1 (relative stereo) [Example 365, Trans-*R, *S—N-(2,6-dimethylpyrimidin-4-yl)-5-[4-[(1,4-dimethylpyrrolidin-3-yl)oxymethyl]-2-methyl-pyrazol-3-yl]pyrazolo[1,5-a]pyridin-2-amine]
8.80 | Cc1cc(Nc2cc3cc(-c4c(CO[C@@H]5CN(C)C[C@H]5C)cnn4C)ccn3n2)nc(C)n1 (relative stereo) [Example 366, Trans-*S, *R—N-(2,6-dimethylpyrimidin-4-yl)-5-[4-[(1,4-dimethylpyrrolidin-3-yl)oxymethyl]-2-methyl-pyrazol-3-yl]pyrazolo[1,5-a]pyridin-2-amine]
8.51 | Cc1cnc(Nc2cc3cc(-c4c(CO[C@@H]5CN(C)C[C@@H]5C)cnn4C)ccn3n2)cn1 (relative stereo) [Example 380, CIS—*S, *S-5-[4-[(1,4-dimethylpyrrolidin-3-yl)oxymethyl]-2-methyl-pyrazol-3-yl]-N-(5-methylpyrazin-2-yl)pyrazolo[1,5-a]pyridin-2-amine]
6.66 | CCN1CC2(CC2)[C@@H]1COc1cnn(C)c1-c1ccn2nc(NC(=O)C3CC3)cc2c1 (single isomer, unassigned) [Example 16, (*R)—N-(5-(4-((5-Ethyl-5-azaspiro[2.3]hexan-4-yl)methoxy)-1-methyl-1H-pyrazol-5-yl)pyrazolo[1,5-a]pyridin-2-yl)cyclopropanecarboxamide]
